Measured values as given in paper PMC7329864, “Role of water in cyclooxygenase catalysis and design of anti-inflammatory agents targeting two sites of the enzyme” (Scientific Reports, 2020).
pIC50: −log10 of the molar value. “Also recorded” adds a separate entry of the source. Where two headings read alike, the source gives them in different places.

What was measured:
COX-1 = biological target: T1, COX-1 (Ovis aries, UniProt P05979); experiment: COX inhibitory enzyme immunoassay (COX-1); format: biochemical
T1 construct: purchased Cayman Chemical Co. item no; 560131
T1 sequence (P05979 25-600): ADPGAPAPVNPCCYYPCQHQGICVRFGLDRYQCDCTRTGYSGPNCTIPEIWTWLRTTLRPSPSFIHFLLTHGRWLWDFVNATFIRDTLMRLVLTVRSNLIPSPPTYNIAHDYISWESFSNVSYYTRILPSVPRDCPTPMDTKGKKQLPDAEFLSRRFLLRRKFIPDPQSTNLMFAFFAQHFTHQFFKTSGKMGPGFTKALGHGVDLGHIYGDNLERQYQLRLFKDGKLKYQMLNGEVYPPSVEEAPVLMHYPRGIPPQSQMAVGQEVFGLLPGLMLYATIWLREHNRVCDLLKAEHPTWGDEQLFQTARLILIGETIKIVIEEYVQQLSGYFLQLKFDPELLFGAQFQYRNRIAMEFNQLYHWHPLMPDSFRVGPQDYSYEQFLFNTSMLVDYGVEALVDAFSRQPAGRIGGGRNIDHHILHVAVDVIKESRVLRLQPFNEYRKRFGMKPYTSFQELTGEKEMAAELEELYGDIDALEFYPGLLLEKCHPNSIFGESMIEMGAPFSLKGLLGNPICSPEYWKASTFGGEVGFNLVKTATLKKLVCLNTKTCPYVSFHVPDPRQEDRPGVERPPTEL
Protocol: (§1) All the compounds of Fig. 9 were screened for COX-1/2 inhibitory activity in triplicate at 10^–4–10^–8 M concentration by performing enzyme immunoassays. The activity of the compounds was quantified in terms of amount of prostaglandins produced by the enzymes in the presence of different concentrations of the compound.
(§2) For studying the COX-1, COX-2 inhibitory activities of the compounds, various reagents were prepared as per the protocol of the assays. The compounds were screened in triplicate at 10^–4–10^–8 M concentration using the procedure as described in the previous report.

wt COX-2 = biological target: T2, wt COX-2 (Homo sapiens, UniProt P35354); experiment: COX inhibitory enzyme immunoassay (COX-2); format: biochemical; conditions: for pIC50: enzyme immunoassay, screened at 10^–4–10^–8 M, average of 3 experiments, SD ± 0.5 µM; for SI (IC50(COX-1)/IC50 (COX-2): selectivity index COX-1/COX-2
T2 construct: purchased Cayman Chemical Co. item no; 560131
T2 sequence (P35354 18-604): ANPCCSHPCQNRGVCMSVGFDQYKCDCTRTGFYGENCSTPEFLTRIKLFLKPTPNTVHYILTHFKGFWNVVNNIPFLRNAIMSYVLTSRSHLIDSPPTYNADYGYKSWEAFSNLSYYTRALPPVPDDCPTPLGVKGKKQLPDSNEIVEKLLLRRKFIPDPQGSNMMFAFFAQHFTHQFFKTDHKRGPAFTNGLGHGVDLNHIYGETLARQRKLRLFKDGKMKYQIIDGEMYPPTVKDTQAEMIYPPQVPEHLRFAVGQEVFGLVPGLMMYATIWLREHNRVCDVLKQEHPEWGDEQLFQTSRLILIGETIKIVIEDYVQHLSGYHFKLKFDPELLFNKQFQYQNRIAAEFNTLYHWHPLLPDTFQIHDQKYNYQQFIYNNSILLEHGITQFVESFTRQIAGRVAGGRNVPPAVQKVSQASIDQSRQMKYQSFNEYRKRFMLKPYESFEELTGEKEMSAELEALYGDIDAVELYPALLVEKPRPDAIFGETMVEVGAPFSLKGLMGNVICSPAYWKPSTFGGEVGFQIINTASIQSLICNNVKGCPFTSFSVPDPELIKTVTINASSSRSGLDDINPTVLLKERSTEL
Protocol: as §1, §2

COX-2 = biological target: T3, COX-2 (Homo sapiens, UniProt P35354); experiment: UV-Vis and fluorescence studies of interaction with COX-2; format: binding; conditions: addition of COX-2 in Tris–HCl buffer pH 7.25 to solution of compound
T3 sequence (P35354 18-604): T2 sequence (P35354 18-604)
Source text: In order to support in-silico experiments, the interactions of 1, 13d and 15d with COX-2 were checked with UV–vis and fluorescence spectral techniques. […] The appearance of level-off in the visible region (500–700 nm) was attributed to the Mie scattering due to the formation of aggregates. […] Corroborating the results of molecular modelling studies, the changes in the UV–Vis spectra as well as the fluorescence spectrum of the compound on addition of COX-2 probably occurred due to the HOMO–LUMO interactions between 1 and the enzyme (Figure S26). The linear Stern–Volmer plot of decrease in fluorescence intensity at 567 nm on increasing COX-2 concentration gave Stern–Volmer constant Ksv 3.30 × 10^4 M^-1. The detection limit of the compound for COX-2 was 0.02 nM (Figure S26C,D).
In order to support in-silico experiments, the interactions of 1, 13d and 15d with COX-2 were checked with UV-vis and fluorescence spectral techniques. […] The appearance of level-off in the visible region (500-700 nm) was attributed to the Mie scattering due to the formation of aggregates. […] Corroborating the results of molecular modelling studies, the changes in the UV-Vis spectra as well as the fluorescence spectrum of the compound on addition of COX-2 probably occurred due to the HOMO-LUMO interactions between 1 and the enzyme (Figure S27). The linear Stern-Volmer plot of decrease in fluorescence intensity at 567 nm on increasing COX-2 concentration gave Stern-Volmer constant Ksv 3.30x10^4 M^-1. The detection limit of the compound for COX-2 was 0.02 nM (Figure 27C, 27D).

[1] = enzyme immunoassay, screened at 10^–4–10^–8 M, average of 3 experiments, SD ± 0.5 µM, read-out: IC50 COX-1

SMILES | pIC50 (COX-1) | pIC50 (wt COX-2) | SI (IC50(COX-1)/IC50 (COX-2) (wt COX-2) | decrease in fluorescence intensity (quenching) in the presence of COX-2 (COX-2) | pIC50 (COX-1; [1])
O=C1NC(=O)C(=Cc2cn(CCCn3c4ccccc4c(=O)c4ccccc43)c3ccccc23)C(=O)N1 [Compound 3, 5-((1-(3-(9-Oxoacridin-10(9H)-yl)propyl)-1H-indol-3-yl)methylene)pyrimidine-2,4,6 (1H, 3H, 5H)-trione] | < 4.00 | 5.00 | > 10 |  | 
O=Cc1cn(CCCCCCn2c3ccccc3c(=O)c3ccccc32)c2ccccc12 [Compound 15d, 1-(6-(9-Oxoacridin-10(9H)-yl)hexyl)-1H-indole-3-carbaldehyde] | < 4.00 | 4.63 | > 4 | Small decrease; also recorded: much less | 
Cn1cc(/C=C2\C(=O)N(CCCCCCn3c4ccccc4c(=O)c4ccccc43)c3ccccc32)c2ccccc21 [Compound 5, (Z)-10-(6-(3-((1-Methyl-1H-indol-3-yl)methylene)-2-oxoindolin-1-yl)hexyl)acridin-9(10H)-one] |  | 6.82 | 350 |  | 4.28
CN1C(=O)C(=Cc2cn(CCCCCCn3c4ccccc4c(=O)c4ccccc43)c3ccccc23)C(=O)N(C)C1=O [Compound 4] | 4.48 | 5.67 | 15 |  | 
COc1cc(/C=C2\C(=O)N(CCCCCCn3c4ccccc4c(=O)c4ccccc43)c3ccccc32)cc(OC)c1O [Compound 8, (Z)-10-(6-(3-(4-Hydroxy-3,5-dimethoxybenzylidene)-2-oxoindolin-1-yl)hexyl)acridin-9(10H)-one] |  | 6.92 | 400 |  | 4.32
O=c1c2ccccc2n(CCCCCCBr)c2ccccc12 [Compound 13d, 10-(6-Bromohexyl)acridin-9(10H)-one] |  | 4.31 | > 2 | Small decrease; also recorded: much less | < 4.00
Cn1cc(/C=C2\C(=O)N(CCCn3c4ccccc4c(=O)c4ccccc43)c3ccccc32)c2ccccc21 [Compound 7, (Z)-10-(3-(3-((1-methyl-1H-indol-3-yl)methylene)-2-oxoindolin-1-yl)propyl)acridin-9(10H)-one] |  | 4.66 | > 4.5 |  | < 4.00
COc1cc(/C=C2\C(=O)N(CCCCCn3c4ccccc4c(=O)c4ccccc43)c3ccccc32)cc(OC)c1O [Compound 9, (Z)-10-(5-(3-(4-Hydroxy-3,5-dimethoxybenzylidene)-2-oxoindolin-1-yl)pentyl)acridin-9(10H)-one] |  | 6.64 | 250 |  | 4.28
Cn1cc(/C=C2\C(=O)N(CCCCCn3c4ccccc4c(=O)c4ccccc43)c3ccccc32)c2ccccc21 [Compound 6, (Z)-10-(5-(3-((1-Methyl-1H-indol-3-yl)methylene)-2-oxoindolin-1-yl)pentyl)acridin-9(10H)-one] |  | 6.46 | 160 |  | 4.22
O=C1NC(=O)C(=Cc2cn(CCCCCn3c4ccccc4c(=O)c4ccccc43)c3ccccc23)C(=O)N1 [Compound 2, 5-((1-(5-(9-Oxoacridin-10(9H)-yl)pentyl)-1H-indol-3-yl)methylene)pyrimidine-2,4,6(1H, 3H, 5H)-trione] | 4.40 | 7.00 | 400 |  | 
COc1cc(/C=C2\C(=O)N(CCCn3c4ccccc4c(=O)c4ccccc43)c3ccccc32)cc(OC)c1O [Compound 10, (Z)-10-(3-(3-(4-Hydroxy-3,5-dimethoxybenzylidene)-2-oxoindolin-1-yl)propyl)acridin-9(10H)-one] |  | 4.92 | > 8 |  | < 4.00
